Earlier results in article PMC10485887, “PET Evaluation of the Novel F-18 Labeled Reversible Radioligand [^18F]GEH200449 for Detection of Monoamine Oxidase-B in the Non-Human Primate Brain” (ACS Chemical Neuroscience, 2023).

Test system: MAO-B
Design: method as in PMID 33284012
Conditions: autoradiography; cited from earlier work

For `O=c1ccoc2ccc(OCc3ccc([18F])nc3)cc12` [[^18F]GEH200449], the “binding in human brain tissue” value is given as “specific binding to MAO-B” and the “non-specific binding in human brain tissue” value is given as “low”.
